# From US20230017045A1, “PYRIDINE AND PYRIMIDINE CARBOXYLATE HERBICIDES AND METHODS OF USE THEREOF” (Dow AgroSciences LLC, priority 2017, published 2023)
# Tested on: test plant species
# Assay: Post-emergent herbicidal activity test (greenhouse, foliar spray, visual growth reduction)
# Type: in vivo
# Settings: post-emergence, 336 h, ALOMY: blackgrass (Alopecurus myosuroides), 140 g ai/ha, 14 days after application, read-out: Visual Growth Reduction (%) 14 Days After Application, ALOMY
# In short: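 Visual scoring 14 d after treatment (0 = no injury, 100 = complete control) against nontreated and solvent-blank plants gave percent growth reduction. Foliar application used a track sprayer delivering 187 L/ha to seedlings at first or second true leaf stage, grown at 23–29 °C day, ~15 h photoperiod.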
row,SMILES,pest or weed control at 140 g/ha [%]
1,"COC(=O)c1nc(-c2ccc(C(F)(F)F)cc2C)c(F)cc1Cl [F170, Methyl 3-chloro-5-fluoro-6-(2-methyl-4-(trifluoromethyl)phenyl)picolinate]",45 to 59
2,"COC(=O)c1nc(-c2ccc(Cl)cc2)ccc1Cl [F82, methyl 3-chloro-6-(4-chlorophenyl)picolinate]",0 to 29
3,COC(=O)c1nc(-c2ccc(C(F)(F)F)cc2Cl)c(C)cc1Cl [F5],0 to 29

# Same assay, conditions: post-emergence, 336 h, AMARE: redroot pigweed (Amaranthus retroflexus), 140 g ai/ha, 14 days after application, read-out: Visual Growth Reduction (%) 14 Days After Application, AMARE
row,SMILES,pest or weed control at 140 g/ha [%]
1,"COC(=O)c1nc(-c2ccc(C(F)(F)F)cc2C)c(F)cc1Cl [F170, Methyl 3-chloro-5-fluoro-6-(2-methyl-4-(trifluoromethyl)phenyl)picolinate]",95 to 100
2,"COC(=O)c1nc(-c2ccc(Cl)cc2)ccc1Cl [F82, methyl 3-chloro-6-(4-chlorophenyl)picolinate]",95 to 100
3,COC(=O)c1nc(-c2ccc(C(F)(F)F)cc2Cl)c(C)cc1Cl [F5],0 to 29

# Same assay, conditions: post-emergence, 336 h, AVEFA: wild oat (Avena fatua), 140 g ai/ha, 14 days after application, read-out: Visual Growth Reduction (%) 14 Days After Application, AVEFA
row,SMILES,pest or weed control at 140 g/ha [%]
1,"COC(=O)c1nc(-c2ccc(C(F)(F)F)cc2C)c(F)cc1Cl [F170, Methyl 3-chloro-5-fluoro-6-(2-methyl-4-(trifluoromethyl)phenyl)picolinate]",30 to 44
2,"COC(=O)c1nc(-c2ccc(Cl)cc2)ccc1Cl [F82, methyl 3-chloro-6-(4-chlorophenyl)picolinate]",0 to 29
3,COC(=O)c1nc(-c2ccc(C(F)(F)F)cc2Cl)c(C)cc1Cl [F5],0 to 29

# Same assay, conditions: post-emergence, 336 h, CHEAL: lambsquarters (Chenopodium album), 140 g ai/ha, 14 days after application, read-out: Visual Growth Reduction (%) 14 Days After Application, CHEAL
row,SMILES,pest or weed control at 140 g/ha [%]
1,"COC(=O)c1nc(-c2ccc(C(F)(F)F)cc2C)c(F)cc1Cl [F170, Methyl 3-chloro-5-fluoro-6-(2-methyl-4-(trifluoromethyl)phenyl)picolinate]",95 to 100
2,"COC(=O)c1nc(-c2ccc(Cl)cc2)ccc1Cl [F82, methyl 3-chloro-6-(4-chlorophenyl)picolinate]",60 to 74
3,COC(=O)c1nc(-c2ccc(C(F)(F)F)cc2Cl)c(C)cc1Cl [F5],45 to 59

# Same assay, conditions: post-emergence, 336 h, CIRAR: canada thistle (Cirsium arvense), 140 g ai/ha, 14 days after application, read-out: Visual Growth Reduction (%) 14 Days After Application, CIRAR
row,SMILES,pest or weed control at 140 g/ha [%]
1,"COC(=O)c1nc(-c2ccc(C(F)(F)F)cc2C)c(F)cc1Cl [F170, Methyl 3-chloro-5-fluoro-6-(2-methyl-4-(trifluoromethyl)phenyl)picolinate]",85 to 94
2,"COC(=O)c1nc(-c2ccc(Cl)cc2)ccc1Cl [F82, methyl 3-chloro-6-(4-chlorophenyl)picolinate]",75 to 84
3,COC(=O)c1nc(-c2ccc(C(F)(F)F)cc2Cl)c(C)cc1Cl [F5],0 to 29

# Same assay, conditions: post-emergence, 336 h, CYPES: yellow nutsedge (Cyperus esculentus), 140 g ai/ha, 14 days after application, read-out: Visual Growth Reduction (%) 14 Days After Application, CYPES
row,SMILES,pest or weed control at 140 g/ha [%]
1,"COC(=O)c1nc(-c2ccc(C(F)(F)F)cc2C)c(F)cc1Cl [F170, Methyl 3-chloro-5-fluoro-6-(2-methyl-4-(trifluoromethyl)phenyl)picolinate]",60 to 74
2,"COC(=O)c1nc(-c2ccc(Cl)cc2)ccc1Cl [F82, methyl 3-chloro-6-(4-chlorophenyl)picolinate]",75 to 84
3,COC(=O)c1nc(-c2ccc(C(F)(F)F)cc2Cl)c(C)cc1Cl [F5],30 to 44

# Same assay, conditions: post-emergence, 336 h, DIGSA: crabgrass (Digitaria sanguinalis), 140 g ai/ha, 14 days after application, read-out: Visual Growth Reduction (%) 14 Days After Application, DIGSA
row,SMILES,pest or weed control at 140 g/ha [%]
1,"COC(=O)c1nc(-c2ccc(C(F)(F)F)cc2C)c(F)cc1Cl [F170, Methyl 3-chloro-5-fluoro-6-(2-methyl-4-(trifluoromethyl)phenyl)picolinate]",85 to 94
2,"COC(=O)c1nc(-c2ccc(Cl)cc2)ccc1Cl [F82, methyl 3-chloro-6-(4-chlorophenyl)picolinate]",0 to 29
3,COC(=O)c1nc(-c2ccc(C(F)(F)F)cc2Cl)c(C)cc1Cl [F5],0 to 29

# Same assay, conditions: post-emergence, 336 h, ECHCG: barnyardgrass (Echinochloa crus-galli), 140 g ai/ha, 14 days after application, read-out: Visual Growth Reduction (%) 14 Days After Application, ECHCG
row,SMILES,pest or weed control at 140 g/ha [%]
1,"COC(=O)c1nc(-c2ccc(C(F)(F)F)cc2C)c(F)cc1Cl [F170, Methyl 3-chloro-5-fluoro-6-(2-methyl-4-(trifluoromethyl)phenyl)picolinate]",60 to 74
2,"COC(=O)c1nc(-c2ccc(Cl)cc2)ccc1Cl [F82, methyl 3-chloro-6-(4-chlorophenyl)picolinate]",0 to 29

# Same assay, conditions: post-emergence, 336 h, IPOHE: ivy-leaf morning glory (Ipomoea hederacea), 140 g ai/ha, 14 days after application, read-out: Visual Growth Reduction (%) 14 Days After Application, IPOHE
row,SMILES,pest or weed control at 140 g/ha [%]
1,"COC(=O)c1nc(-c2ccc(C(F)(F)F)cc2C)c(F)cc1Cl [F170, Methyl 3-chloro-5-fluoro-6-(2-methyl-4-(trifluoromethyl)phenyl)picolinate]",95 to 100
2,"COC(=O)c1nc(-c2ccc(Cl)cc2)ccc1Cl [F82, methyl 3-chloro-6-(4-chlorophenyl)picolinate]",75 to 84

# Same assay, conditions: post-emergence, 336 h, KCHSC: kochia (Bassia scoparia), 140 g ai/ha, 14 days after application, read-out: Visual Growth Reduction (%) 14 Days After Application, KCHSC
row,SMILES,pest or weed control at 140 g/ha [%]
1,"COC(=O)c1nc(-c2ccc(C(F)(F)F)cc2C)c(F)cc1Cl [F170, Methyl 3-chloro-5-fluoro-6-(2-methyl-4-(trifluoromethyl)phenyl)picolinate]",60 to 74
2,"COC(=O)c1nc(-c2ccc(Cl)cc2)ccc1Cl [F82, methyl 3-chloro-6-(4-chlorophenyl)picolinate]",60 to 74

# Same assay, conditions: post-emergence, 336 h, ORYSA: rice (Oryza sativa), 140 g ai/ha, 14 days after application, read-out: Visual Growth Reduction (%) 14 Days After Application, ORYSA
row,SMILES,pest or weed control at 140 g/ha [%]
1,"COC(=O)c1nc(-c2ccc(C(F)(F)F)cc2C)c(F)cc1Cl [F170, Methyl 3-chloro-5-fluoro-6-(2-methyl-4-(trifluoromethyl)phenyl)picolinate]",0 to 29
2,"COC(=O)c1nc(-c2ccc(Cl)cc2)ccc1Cl [F82, methyl 3-chloro-6-(4-chlorophenyl)picolinate]",0 to 29

# Same assay, conditions: post-emergence, 336 h, SETFA: giant foxtail (Setaria faberi), 140 g ai/ha, 14 days after application, read-out: Visual Growth Reduction (%) 14 Days After Application, SETFA
row,SMILES,pest or weed control at 140 g/ha [%]
1,"COC(=O)c1nc(-c2ccc(C(F)(F)F)cc2C)c(F)cc1Cl [F170, Methyl 3-chloro-5-fluoro-6-(2-methyl-4-(trifluoromethyl)phenyl)picolinate]",85 to 94

# Same assay, conditions: post-emergence, 336 h, SORVU: grain sorghum (Sorghum vulgare), 140 g ai/ha, 14 days after application, read-out: Visual Growth Reduction (%) 14 Days After Application, SORVU
row,SMILES,pest or weed control at 140 g/ha [%]
1,"COC(=O)c1nc(-c2ccc(C(F)(F)F)cc2C)c(F)cc1Cl [F170, Methyl 3-chloro-5-fluoro-6-(2-methyl-4-(trifluoromethyl)phenyl)picolinate]",85 to 94
2,"COC(=O)c1nc(-c2ccc(Cl)cc2)ccc1Cl [F82, methyl 3-chloro-6-(4-chlorophenyl)picolinate]",0 to 29

# Same assay, conditions: post-emergence, 336 h, STEME: common chickweed (Stellaria media), 140 g ai/ha, 14 days after application, read-out: Visual Growth Reduction (%) 14 Days After Application, STEME
row,SMILES,pest or weed control at 140 g/ha [%]
1,"COC(=O)c1nc(-c2ccc(C(F)(F)F)cc2C)c(F)cc1Cl [F170, Methyl 3-chloro-5-fluoro-6-(2-methyl-4-(trifluoromethyl)phenyl)picolinate]",0 to 29
2,"COC(=O)c1nc(-c2ccc(Cl)cc2)ccc1Cl [F82, methyl 3-chloro-6-(4-chlorophenyl)picolinate]",30 to 44

# Same assay, conditions: post-emergence, 336 h, TRZAS: wheat, spring (Triticum aestivum), 140 g ai/ha, 14 days after application, read-out: Visual Growth Reduction (%) 14 Days After Application, TRZAS
row,SMILES,pest or weed control at 140 g/ha [%]
1,"COC(=O)c1nc(-c2ccc(C(F)(F)F)cc2C)c(F)cc1Cl [F170, Methyl 3-chloro-5-fluoro-6-(2-methyl-4-(trifluoromethyl)phenyl)picolinate]",60 to 74

# Same assay, conditions: post-emergence, 336 h, barnyardgrass (Echinochloa crus-galli), 14 Days After Application, 140 g ai/ha, read-out: Visual Growth Reduction (%) ECHCG
row,SMILES,pest or weed control at 140 g/ha [%]
1,COC(=O)c1nc(-c2ccc(C(F)(F)F)cc2Cl)c(C)cc1Cl [F5],0 to 29

# Same assay, conditions: post-emergence, 336 h, giant foxtail (Setaria faberi), 14 Days After Application, 140 g ai/ha, read-out: Visual Growth Reduction (%) SETFA
row,SMILES,pest or weed control at 140 g/ha [%]
1,COC(=O)c1nc(-c2ccc(C(F)(F)F)cc2Cl)c(C)cc1Cl [F5],0 to 29

# Same assay, conditions: post-emergence, 336 h, ivy-leaf morning glory (Ipomoea hederacea), 14 Days After Application, 140 g ai/ha, read-out: Visual Growth Reduction (%) IPOHE
row,SMILES,pest or weed control at 140 g/ha [%]
1,COC(=O)c1nc(-c2ccc(C(F)(F)F)cc2Cl)c(C)cc1Cl [F5],30 to 44

# Same assay, conditions: post-emergence, 336 h, johnsongrass (Sorghum vulgare), 14 Days After Application, 140 g ai/ha, read-out: Visual Growth Reduction (%) SORVU
row,SMILES,pest or weed control at 140 g/ha [%]
1,COC(=O)c1nc(-c2ccc(C(F)(F)F)cc2Cl)c(C)cc1Cl [F5],30 to 44

# Same assay, conditions: post-emergence, 336 h, kochia (Bassia scoparia), 14 Days After Application, 140 g ai/ha, read-out: Visual Growth Reduction (%) KCHSC
row,SMILES,pest or weed control at 140 g/ha [%]
1,COC(=O)c1nc(-c2ccc(C(F)(F)F)cc2Cl)c(C)cc1Cl [F5],30 to 44

# Same assay, conditions: post-emergence, 336 h, rice (Oryza sativa), 14 Days After Application, 140 g ai/ha, read-out: Visual Growth Reduction (%) ORYSA
row,SMILES,pest or weed control at 140 g/ha [%]
1,COC(=O)c1nc(-c2ccc(C(F)(F)F)cc2Cl)c(C)cc1Cl [F5],0 to 29

# Same assay, conditions: post-emergence, 336 h, wheat, spring (Triticum aestivum), 14 Days After Application, 140 g ai/ha, read-out: Visual Growth Reduction (%) TRZAS
row,SMILES,pest or weed control at 140 g/ha [%]
1,COC(=O)c1nc(-c2ccc(C(F)(F)F)cc2Cl)c(C)cc1Cl [F5],0 to 29
